# Data: patent US20060229255A1, “Identification of n-alkylglycine trimers for induction of apoptosis” (priority 2003, published 2006)
# Legend:
# Assay type in all cases: cell-based, human
# HT29 cells [1] = assay: DNA analysis by flow cytometry (cell cycle profile, sub-G1 peak); conditions: for Dose dependence of subG1 peak: HT29, 72 h, increasing dose 1-35 or 40 μM; for Apoptosis induction (sub-G1 peak detection): HT29, 72 h treatment; for Cells in G1-phase: HT29, compound alone, 24 h in culture; for Maximum apoptosis in time-course: HT29, highest dose assayed, 72 h; for Cell population retained in G2/M phase: HT29, in combination with low doses of Taxol
# Experimental: DNA analysis. Floating and adherent cells treated with the compounds were collected by trypsinization and washed twice with PBS. The cells were permeabilized overnight at −20° C. with ice-cold ethanol 70%. The cells were washed in PBS, adjusted at 0.5×10^6 cells/ml and incubated with 20 μg/ml Propidium Iodide and 2 μl/ml RNase DNase-free for 30 min at 30° C. Cells were maintained overnight at 4° C. and then analysed by flow cytometry. Flow cytometric experiments were carried out using an Epics XL flow cytometer (Coulter Corporation, Hialeah, Fla.). The instrumet was set up with the standard configuration: excitation of the sample was done using an standard 488 nm air-cooled argon-ion laser at 15 mW power. Forward scatter (FSC), side scatter (SSC) and red (620 nm) fluorescence for PI were adquired. Optical alignement was based on optimized signal from […] fluorescent beads (Immunocheck, Epics Division). Time was used as a control of the stability of the instrument. Red fluorescence was projected on a 1024 monoparametrical histogram. Aggregates were excluded gating single cells by their area vs. peak fluorescence signal. DNA analysis (Ploidy analysis) on single fluorescence histograms was done using Multicycle software (Phoenix Flow Systems, San Diego, Calif.).
# FIG. 2. N10-13-10C and N13-13-10C are pro-apoptotic peptoids while N4-13-10C and N5-13-10C are not. Cell cycle profile was analysed by DNA staining. HT29 cells were grown for 72 h in presence of N4-13-10C (100 μM), N5-13-10C (100 μM), N10-13-10C (40 μM), N13-13-10C (35 μM), Taxol (11 nM) or DMSO as negative control. Fraction of cells at G0/G1, S, G2/M or subG1 peak are specified.
# FIG. 3. Specific pro apoptotic effect of N10-13-10C and N13-13-10C. (A) SubG1 peak analysis on several cell lines including HT29, LoVo, MDA.MB.435 and its lung metastatic derivatives lung 2 and lung 6 after 72 h treatment with N10-13-10C or N13-13-10C at IC50 values specified on Table 1. (B) Dose-response analysis of subG1 peak after 72 h treatment of HT29 cells with N 10-13-10C or N13-13-10C at 1, 5, 10, 20, 30 and 35 or 40 μM, respectively. Both, floating and adherent cells were collected, fixed, stained with propidium iodide and DNA content was evaluated by flow cytometry. The fraction of cells with hypodiplod DNA content, i.e. subG1 peak are shown.
# FIG. 4. (A) Time course analysis of cell cycle profile after treatment of HT29 cells with N10-13-10C (40 μM), N13-13-10C (35 μM) and/or Taxol (11 nM) for 24 h, 48 h and 72 h. The fraction of cells with subG1 (dark blue), G0/G1 (red), S (yellow), G2/M (blue) DNA content are shown as % of total cell population. (B.) N13-13-10C pulse experiments. HT29 cells were treated transiently with 35 μM N13-13-10C for 1, 3, 6, 24, 48 or 72 h and returned to medium without product for up to 72 h. DNA staining was analyzed by flow cytometry.
# HT29 cells [2] = assay: Annexin V-FITC detection assay; conditions: HT29, 35 μM, 40 h treatment
# Experimental: Annexin V assay. Treated cells were harvested with EDTA 0.02% in Hank's Balanced Salt Solution (HBSS), washed in HBSS then in PBS (phosphate buffered saline) containing 1% BSA (Bovine serum albumine) and finally resuspended in Annexin V incubation buffer (10 mM HEPES 7.4; 140 mM NaCl; 2.5 mM CaCl2) containing 1% BSA. 10^5 cells were incubated with 5 μl Annexin-V-FITC (Bender MedSystems) for 1 h at room temperature and in the dark. Dead cells were stained with Propidium Iodide (PI) at 2 μg/ml. The analysis was immediately performed by flow cytometry.
# FIG. 5. Detection of early apoptosis. Annexin V assay after 40 h of treatment with DMSO (right panel), N13-13-10C, 35 µM (central panel), or Taxol, 11 nM (left panel). HT29 treated cells were stained with Annexin V-FITC and PI and subjected to flow cytometry. Fluorescence dot blots of annexin V positive (vertical axis) and PI positive (horizontal axis, logarithmic values) cells are shown. Cell distribution expressed as percentage of the population is indicated: early apoptotic cells in quadrant 1, Q1 (AnV+/IP−); dead cells in Q2 (AnV+/IP+); living cells in Q3 (AnV−/IP−); necrotic cells in Q4 (AnV−/IP+).
# JNK = assay: Western blot with JNK-phosphorylation specific antibody; conditions: HT29 cells
# Experimental: Western blotting. Floating and adherent cells were harvested and pellets were resuspended in RIPA buffer (50 mM Tris/HCl 7.4, 250 mM NaCl, 0,5% Igepal CA630, 5 mM EDTA, 1 mM PMSF, 10 μg/ml leupeptin, 50 mM NaF, 0.1 mM Na3VO4) or Deoxycholate buffer (10 mM phosphate buffer 7.4, […] NaCl, 0.5% Deoxycholate, 1% Igepal, 0.1% SDS, 1 mM PMSF). Protein concentration was determined with BCA Protein Assay Kit (Pierce) for RIPA extracts or Bradford assay (BioRad) for Deoxycholate extracts. Total protein (20-30 μg/lane) were separated by SDS-PAGE, transferred to PVDF membranes (Gellman), and probed with antibodies against Bcl-xL (Transduction); Bax (Santa Cruz); JNK (Santa Cruz); phospho-JNK (Cell Signaling); pRb (Pharmingen); pRb-phospho Ser780 (Cell Signalling); p130 (Santa Cruz); p107 (Santa Cruz); Cdk2 (Santa Cruz); p27^Kip1 (Santa Cruz); p21^Cip1 (Santa Cruz); actin (Sigma); or tubulin (ICN) and developed with ECL system (AmershamPharmacia biotech)
# FIG. 6. (A) JNK is activated after N13-13-10C treatment. HT29 cells were treated for 1, 3, 6 and 24 h with N13-13-10C (35 μM), harvested and immunoblotted to assess activation of SAP/JNK MAP kinase. Western blot was first probed with the JNK-phosphor specific antibody, was stripped and reprobed with the pan-JNK antibody and actin to normalize total protein level. […]
Structure (SMILES),"Pulse necessary for irreversible induction of apoptosis (HT29 cells [1]; HT29, 35 μM, returned to drug-free medium up to 72 h) [h]",Dose dependence of subG1 peak (HT29 cells [1]),Apoptosis induction (sub-G1 peak detection) (HT29 cells [1]),Cells in G1-phase (HT29 cells [1]),Maximum apoptosis in time-course (HT29 cells [1]),Cell population retained in G2/M phase (HT29 cells [1]),"Cell cycle profile after short time pulses (HT29 cells [1]; HT29, pulses of 1, 3 and 6 h)","Early apoptotic cells (IP negative, Annexin V positive) (HT29 cells [2]) [%]",Increase of early apoptotic cells with respect to control cells (HT29 cells [2]) [fold],Time of JNK activation (phosphorylation) (JNK) [h]
COc1ccc(CCNCC(=O)N(CCc2ccc(OC)cc2)CC(=O)N(CCc2ccccc2)CC(N)=O)cc1 [N13-13-10C],≥ 24,dose-dependent apoptosis,able to induce apoptosis,increase the percentage of cells in G1-phase,around 40%,about 60%,do not differ from control cells,14,3.5,3 to 6
COc1ccc(CCN(CC(=O)N(CCc2ccccc2)CC(N)=O)C(=O)CNCCc2ccccc2)cc1 [N10-13-10C],,dose-dependent apoptosis,able to induce apoptosis,increase the percentage of cells in G1-phase,20%,about 60%,,,,
